Experimental findings from patent US11149023B2, “Substituted triazole derivatives and uses thereof” (Bayer Pharma Aktiengesellschaft, priority 2017, dated 2021) are described below.

The structures appear in SMILES notation.

One may read the IC50 as the concentration that gives 50% inhibition.

One test has as its target human V2 receptor (Homo sapiens (Human), UniProt P30518). As to the kind of experiment: Cellular in vitro assay for determining vasopressin receptor activity (V2, CRE-luciferase). The format is cell-based. As to conditions: CHO cell line transfected with human V2 receptor; [Arg8]-vasopressin at EC50 concentration; read-out: IC50 hV2.
The target of another test is human V1a receptor (Homo sapiens (Human), UniProt P37288). As to the kind of experiment: Cellular in vitro assay for determining vasopressin receptor activity (V1a, aequorin luminescence). In kind it is cell-based. The conditions noted are these: for IC50: CHO cell line transfected with human V1a receptor, [Arg8]-vasopressin at EC50 concentration, read-out: IC50 hV1a; for ratio IC50 hV2/hV1a: selectivity, IC50 hV2 divided by IC50 hV1a.
Chain of human V1a receptor (P37288 whole entry): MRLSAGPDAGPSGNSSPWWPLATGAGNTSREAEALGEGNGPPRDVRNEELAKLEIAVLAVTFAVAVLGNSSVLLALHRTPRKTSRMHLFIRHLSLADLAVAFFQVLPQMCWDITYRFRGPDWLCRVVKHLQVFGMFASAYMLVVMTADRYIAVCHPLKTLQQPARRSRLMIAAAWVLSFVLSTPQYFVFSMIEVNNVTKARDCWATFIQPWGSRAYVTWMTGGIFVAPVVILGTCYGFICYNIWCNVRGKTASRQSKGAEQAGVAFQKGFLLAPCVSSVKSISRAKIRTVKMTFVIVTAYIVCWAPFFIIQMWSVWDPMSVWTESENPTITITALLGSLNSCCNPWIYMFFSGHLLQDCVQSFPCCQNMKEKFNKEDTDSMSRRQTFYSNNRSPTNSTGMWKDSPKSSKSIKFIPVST

Chain of human V2 receptor (P30518 whole entry): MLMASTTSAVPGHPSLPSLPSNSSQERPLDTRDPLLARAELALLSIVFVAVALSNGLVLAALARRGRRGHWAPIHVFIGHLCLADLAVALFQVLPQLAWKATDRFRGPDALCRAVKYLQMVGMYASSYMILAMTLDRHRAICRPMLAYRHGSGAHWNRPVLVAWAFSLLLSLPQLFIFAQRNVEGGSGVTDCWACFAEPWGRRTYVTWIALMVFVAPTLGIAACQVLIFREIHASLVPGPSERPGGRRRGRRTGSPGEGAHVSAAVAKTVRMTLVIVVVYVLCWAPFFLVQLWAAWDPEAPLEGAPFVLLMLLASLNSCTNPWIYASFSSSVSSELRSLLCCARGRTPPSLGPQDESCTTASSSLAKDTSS

For `O=C(NC(Cn1c(-c2ccc(Cl)cc2)nn(Cc2ncn(-c3ncccc3Cl)n2)c1=O)C(F)(F)F)[C@@H]1C[C@H](F)CN1` (mixture of isomers) [Example 48, N-{3-[3-(4-Chlorophenyl)-1-{[1-(3-chloropyridin-2-yl)-1H-1,2,4-triazol-3-yl]methyl}-5-oxo-1,5-dihydro-4H-1,2,4-triazol-4-yl]-1,1,1-trifluoropropan-2-yl}-4-fluoro-prolinamide], the IC50 is 305 nM at human V2 receptor and 5.4 nM at human V1a receptor.
Consider `O=C(NC(Cn1c(-c2ccc(Cl)cc2)nn(Cc2ncn(-c3ncccc3Cl)n2)c1=O)C(F)(F)F)C1CC1(F)F` (centres unmarked) [Example 7, N-{3-[3-(4-Chlorophenyl)-1-{[1-(3-chloropyridin-2-yl)-1H-1,2,4-triazol-3-yl]methyl}-5-oxo-1,5-dihydro-4H-1,2,4-triazol-4-yl]-1,1,1-trifluoropropan-2-yl}-2,2-difluorocyclopropanecarboxamide], for which the IC50 on human V2 receptor was 130 nM; on human V1a receptor it was 1.65 nM. The “ratio IC50 hV2/hV1a” value at human V1a receptor turned out to be 78.8.
On to `O=C(NC(Cn1c(-c2ccc(Cl)cc2)nn(Cc2ncn(-c3ncccc3Cl)n2)c1=O)C(F)(F)F)C1(C(F)(F)F)CC1` (single isomer, unassigned) [Example 42, N-{3-[3-(4-Chlorophenyl)-1-{[1-(3-chloropyridin-2-yl)-1H-1,2,4-triazol-3-yl]methyl}-5-oxo-1,5-dihydro-4H-1,2,4-triazol-4-yl]-1,1,1-trifluoropropan-2-yl}-1-(trifluoromethyl)cyclopropane-carboxamide], for which the results for the IC50 on human V2 receptor and at human V1a receptor were 12100 nM and 1350 nM, respectively.
For the compound `O=C(N[C@@H](Cn1c(-c2ccc(Cl)cc2)nn(Cc2ncn(-c3ncccc3Cl)n2)c1=O)C(F)(F)F)C1(C(F)(F)F)CC1` [Example 43], the IC50 at human V2 receptor turned out to be 57.2 nM; on human V1a receptor it was 1.4 nM. At human V1a receptor, the “ratio IC50 hV2/hV1a” value stood at 40.9.
For `O=C(NC(Cn1c(-c2ccc(Cl)cc2)nn(Cc2ncn(-c3ncccc3Cl)n2)c1=O)C(F)(F)F)C1CC(F)(F)C1` (racemic) [Example 15, N-{3-[3-(4-Chlorophenyl)-1-{[1-(3-chloropyridin-2-yl)-1H-1,2,4-triazol-3-yl]methyl}-5-oxo-1,5-dihydro-4H-1,2,4-triazol-4-yl]-1,1,1-trifluoropropan-2-yl}-3,3-difluorocyclobutanecarboxamide] the same measures were 78.5 nM, 2.05 nM and 38.3.
With `O=C(NC(Cn1c(-c2ccc(Cl)cc2)nn(Cc2ncn(-c3ncccc3Cl)n2)c1=O)C(F)(F)F)C1CS(=O)(=O)C1` (single isomer, unassigned) [Example 40, N-{3-[3-(4-Chlorophenyl)-1-{[1-(3-chloropyridin-2-yl)-1H-1,2,4-triazol-3-yl]methyl}-5-oxo-1,5-dihydro-4H-1,2,4-triazol-4-yl]-1,1,1-trifluoropropan-2-yl}thietane-3-carboxamide 1,1-dioxide], the half-inhibitory concentration (IC50) on human V2 receptor came out at 9870 nM; on human V1a receptor it was 370 nM.
With `CC(C)(C)OC(=O)N1CCC1C(=O)NC(Cn1c(-c2ccc(Cl)cc2)nn(Cc2ncn(-c3ncccc3Cl)n2)c1=O)C(F)(F)F` (centres unmarked) [Example 56, tert-Butyl 2-({3-[3-(4-chlorophenyl)-1-{[1-(3-chloropyridin-2-yl)-1H-1,2,4-triazol-3-yl]methyl}-5-oxo-1,5-dihydro-4H-1,2,4-triazol-4-yl]-1,1,1-trifluoropropan-2-yl}carbamoyl)azetidine-1-carboxylate], the IC50 on human V2 receptor was 1030 nM; at human V1a receptor, 8.1 nM. The “ratio IC50 hV2/hV1a” value on human V1a receptor stood at 126.8.
For `O=C(CF)NC(Cn1c(-c2ccc(Cl)cc2)nn(Cc2ncn(-c3ncccc3C(F)(F)F)n2)c1=O)C(F)(F)F` (racemic) [Example 61, N-{3-[3-(4-Chlorophenyl)-5-oxo-1-({1-[3-(trifluoromethyl)pyridin-2-yl]-1H-1,2,4-triazol-3-yl}methyl)-1,5-dihydro-4H-1,2,4-triazol-4-yl]-1,1,1-trifluoropropan-2-yl}-2-fluoroacetamide], in that order: 3800 nM, 50 nM and 76.0.
For `CC(F)C(=O)NC(Cn1c(-c2ccc(Cl)cc2)nn(Cc2ncn(-c3ncccc3Cl)n2)c1=O)C(F)(F)F` (centres unmarked) [Example 10] the same measures were 365 nM, 6.1 nM and 59.8.
Regarding `CC(C)(C)OC(=O)NC1(C(=O)NC(Cn2c(-c3ccc(Cl)cc3)nn(Cc3ncn(-c4ncccc4Cl)n3)c2=O)C(F)(F)F)CC1` (racemic) [Example 26, tert-Butyl [1-({3-[3-(4-chlorophenyl)-1-{[1-(3-chloropyridin-2-yl)-1H-1,2,4-triazol-3-yl]methyl}-5-oxo-1,5-dihydro-4H-1,2,4-triazol-4-yl]-1,1,1-trifluoropropan-2-yl}carbamoyl)cyclopropyl]-carbamate], the IC50 on human V2 receptor stood at 82.5 nM. Also, at human V1a receptor, the IC50 turned out to be 9.15 nM and the “ratio IC50 hV2/hV1a” value is 9.0.
`O=C(CCC(F)(F)F)NC(Cn1c(-c2ccc(Cl)cc2)nn(Cc2ncn(-c3ncccc3Cl)n2)c1=O)C(F)(F)F` (single isomer, unassigned) [Example 33, N-{3-[3-(4-Chlorophenyl)-1-{[1-(3-chloropyridin-2-yl)-1H-1,2,4-triazol-3-yl]methyl}-5-oxo-1,5-dihydro-4H-1,2,4-triazol-4-yl]-1,1,1-trifluoropropan-2-yl}-4,4,4-trifluorobutanamide]: the IC50 on human V2 receptor was 5600 nM; on human V1a receptor, 215 nM.
Regarding `CS(=O)(=O)CC(=O)NC(Cn1c(-c2ccc(Cl)cc2)nn(Cc2ncn(-c3ncccc3Cl)n2)c1=O)C(F)(F)F` (racemic) [Example 44, N-{3-[3-(4-Chlorophenyl)-1-{[1-(3-chloropyridin-2-yl)-1H-1,2,4-triazol-3-yl]methyl}-5-oxo-1,5-dihydro-4H-1,2,4-triazol-4-yl]-1,1,1-trifluoropropan-2-yl}-2-(methylsulfonyl)acetamide], the IC50 at human V2 receptor is 120 nM. Moreover, at human V1a receptor, the IC50 is 1.75 nM and the “ratio IC50 hV2/hV1a” value worked out at 68.6.
For `O=C(CC(F)(F)F)NC(Cn1c(-c2ccc(Cl)cc2)nn(Cc2ncn(-c3ncccc3C(F)(F)F)n2)c1=O)C(F)(F)F` (racemic) [Example 67, N-{3-[3-(4-Chlorophenyl)-5-oxo-1-({1-[3-(trifluoromethyl)pyridin-2-yl]-1H-1,2,4-triazol-3-yl}methyl)-1,5-dihydro-4H-1,2,4-triazol-4-yl]-1,1,1-trifluoropropan-2-yl}-3,3,3-trifluoropropanamide] the same measures were 57 nM, 1.15 nM and 49.6.
For `N#CCC(=O)NC(Cn1c(-c2ccc(Cl)cc2)nn(Cc2ncn(-c3ncccc3Cl)n2)c1=O)C(F)(F)F` (racemic) [Example 5, N-{3-[3-(4-Chlorophenyl)-1-{[1-(3-chloropyridin-2-yl)-1H-1,2,4-triazol-3-yl]methyl}-5-oxo-1,5-dihydro-4H-1,2,4-triazol-4-yl]-1,1,1-trifluoropropan-2-yl}-2-cyanoacetamide] the same measures were 595 nM, 10.6 nM and 56.4.
For `O=C(/C=C/C(F)(F)F)NC(Cn1c(-c2ccc(Cl)cc2)nn(Cc2ncn(-c3ncccc3Cl)n2)c1=O)C(F)(F)F` (racemic) [Example 25, (2E)-N-{3-[3-(4-Chlorophenyl)-1-{[1-(3-chloropyridin-2-yl)-1H-1,2,4-triazol-3-yl]methyl}-5-oxo-1,5-dihydro-4H-1,2,4-triazol-4-yl]-1,1,1-trifluoropropan-2-yl}-4,4,4-trifluorobut-2-enamide], the IC50 at human V2 receptor was 172 nM. Moreover, on human V1a receptor, the IC50 came to 1.75 nM and the “ratio IC50 hV2/hV1a” value is on record as 98.6.
Consider `O=C(NC(Cn1c(-c2ccc(Cl)cc2)nn(Cc2ncn(-c3ncccc3Cl)n2)c1=O)C(F)(F)F)C1CCO1` (centres unmarked) [Example 3, N-{3-[3-(4-Chlorophenyl)-1-{[1-(3-chloropyridin-2-yl)-1H-1,2,4-triazol-3-yl]methyl}-5-oxo-1,5-dihydro-4H-1,2,4-triazol-4-yl]-1,1,1-trifluoropropan-2-yl}oxetane-2-carboxamide], for which the IC50 at human V2 receptor came out at 445 nM. At human V1a receptor, the IC50 is 4.1 nM and the “ratio IC50 hV2/hV1a” value stood at 108.5.
For `O=C(CCC(F)(F)F)NC(Cn1c(-c2ccc(Cl)cc2)nn(Cc2ncn(-c3ncccc3Cl)n2)c1=O)C(F)(F)F` (racemic) [Example 32, N-{3-[3-(4-Chlorophenyl)-1-{[1-(3-chloropyridin-2-yl)-1H-1,2,4-triazol-3-yl]methyl}-5-oxo-1,5-dihydro-4H-1,2,4-triazol-4-yl]-1,1,1-trifluoropropan-2-yl}-4,4,4-trifluorobutanamide] the same measures were 78.2 nM, 1.17 nM and 67.0.
For `Cl.O=C(NC(Cn1c(-c2ccc(Cl)cc2)nn(Cc2ncn(-c3ncccc3C(F)(F)F)n2)c1=O)C(F)(F)F)[C@@H]1C[C@@H](F)CN1` (stereo partly drawn) [Example 70, N-{3-[3-(4-Chlorophenyl)-5-oxo-1-({1-[3-(trifluoromethyl)pyridin-2-yl]-1H-1,2,4-triazol-3-yl}methyl)-1,5-dihydro-4H-1,2,4-triazol-4-yl]-1,1,1-trifluoropropan-2-yl}-4-fluoro-L-prolinamide] the same measures were 445 nM, 6.35 nM and 70.1.
For `O=C(NC(Cn1c(-c2ccc(Cl)cc2)nn(Cc2ncn(-c3ncccc3Cl)n2)c1=O)C(F)(F)F)C1CCS(=O)(=O)C1` (centres unmarked) [Example 30, N-{3-[3-(4-Chlorophenyl)-1-{[1-(3-chloropyridin-2-yl)-1H-1,2,4-triazol-3-yl]methyl}-5-oxo-1,5-dihydro-4H-1,2,4-triazol-4-yl]-1,1,1-trifluoropropan-2-yl}tetrahydrothiophene-3-carboxamide 1,1-dioxide], in that order: 213 nM, 6.3 nM and 33.9.
